Experimental data published in ChEMBL document CHEMBL1811859, “Second-generation sulfonamide inhibitors of D-glutamic acid-adding enzyme: activity optimisation with conformationally rigid analogues of D-glutamic acid” (Eur J Med Chem, 2011).
In brackets after ≈: the same amount, converted by molar mass.

What was measured:
[1] = Inhibition of Escherichia coli MurD ligase
[2] = tested on: Listeria monocytogenes; assay: Antimicrobial activity against Listeria monocytogenes ATCC 14780 by broth dilution method; type: functional
[3] = tested on: Streptococcus pneumoniae; assay: Antimicrobial activity against Streptococcus pneumoniae ATCC 33400 by broth dilution method; type: functional
[4] = tested on: Pseudomonas aeruginosa; assay: Antimicrobial activity against Pseudomonas aeruginosa ATCC 27853 by broth dilution method; type: functional
[5] = tested on: Listeria innocua; assay: Antimicrobial activity against Listeria innocua ATCC 33090 by broth dilution method; type: functional
[6] = tested on: Proteus mirabilis; assay: Antimicrobial activity against Proteus mirabilis ATCC 29936 by broth dilution method; type: functional
[7] = tested on: Enterococcus hirae; assay: Antimicrobial activity against Enterococcus hirae ATCC 9790 by broth dilution method; type: functional
[8] = tested on: Klebsiella pneumoniae; assay: Antimicrobial activity against Klebsiella pneumoniae ATCC 13883 by broth dilution method; type: functional
[9] = tested on: Enterococcus faecalis; assay: Antimicrobial activity against Enterococcus faecalis ATCC 29212 by broth dilution method; type: functional
[10] = tested on: Staphylococcus aureus; assay: Antimicrobial activity against Staphylococcus aureus ATCC 25923 by broth dilution method; type: functional
[11] = Inhibition of Escherichia coli MurD ligase assessed as addition of D-[3H]glu to UDP-N-acetyl-muramoyl-L-alanine after 30 mins
[12] = tested on: Citrobacter freundii; assay: Antimicrobial activity against Citrobacter freundii ATCC 8090 by broth dilution method; type: functional
[13] = tested on: Streptococcus pneumoniae; assay: Antimicrobial activity against Streptococcus pneumoniae ATCC 49619 by broth dilution method; type: functional
[14] = tested on: Escherichia coli; assay: Inhibition of Escherichia coli MurD ligase assessed as residual activity at 500 uM after 30 mins
[15] = tested on: Escherichia coli; assay: Antimicrobial activity against Escherichia coli ATCC 8739 by broth dilution method; type: functional
[16] = tested on: Staphylococcus aureus; assay: Antimicrobial activity against methicillin-resistant Staphylococcus aureus ATCC 43300 by broth dilution method; type: functional
[17] = tested on: Enterococcus faecalis; assay: Antimicrobial activity against Enterococcus faecalis ATCC 19433 by broth dilution method; type: functional
[18] = tested on: Staphylococcus epidermidis; assay: Antimicrobial activity against Staphylococcus epidermidis ATCC 12228 by broth dilution method; type: functional
[19] = tested on: Bacillus subtilis; assay: Antimicrobial activity against Bacillus subtilis ATCC 6633 by broth dilution method; type: functional
[20] = tested on: Enterococcus faecium; assay: Antimicrobial activity against Enterococcus faecium ATCC 19434 by broth dilution method; type: functional
[21] = tested on: Streptococcus pneumoniae; assay: Antimicrobial activity against Streptococcus pneumoniae D39 by broth dilution method; type: functional
[22] = tested on: Micrococcus luteus; assay: Antimicrobial activity against Micrococcus luteus ATCC 9314 by broth dilution method; type: functional
[23] = tested on: Staphylococcus aureus; assay: Antimicrobial activity against methicillin-resistant Staphylococcus aureus PL1 by broth dilution method; type: functional
[24] = Inhibition of Escherichia coli MurD ligase assessed as addition of D-[3H]glu to UDP-N-acetyl-muramoyl-L-alanine
[25] = Inhibition of Escherichia coli MurD ligase after 10 mins using malachite green reagent by colorimetry
[26] = Inhibition of Escherichia coli MurD ligase by fluorimetric assay

Compound | MIC [2] | MIC [3] | MIC [4] | MIC [5] | MIC [6] | MIC [7] | MIC [8] | MIC [9] | MIC [10] | MIC [12] | MIC [13] | Activity [14] | MIC [15] | MIC [16] | MIC [17] | MIC [18] | MIC [19] | MIC [20] | MIC [21] | MIC [22] | other results
O=C(N/N=C/c1ccc(O)c(O)c1O)c1n[nH]c2ccccc12 | – | – | – | – | – | – | – | – | – | – | – | – | – | – | – | – | – | – | – | – | IC50 [1]: 324 µM
N#Cc1ccc(COc2ccc3cc(S(=O)(=O)Nc4ccc(O)cc4C(=O)O)ccc3c2)c(F)c1 | > 512 µg/mL | > 512 µg/mL | > 512 µg/mL | > 512 µg/mL | > 512 µg/mL | > 512 µg/mL | > 512 µg/mL | > 512 µg/mL | > 512 µg/mL | > 512 µg/mL | > 512 µg/mL | 3% | > 512 µg/mL | > 512 µg/mL | > 512 µg/mL | > 512 µg/mL | > 512 µg/mL | > 512 µg/mL | > 512 µg/mL | > 512 µg/mL | IC50 [11]: 46 µM; Ki [11]: 32 µM; MIC [23]: > 512 µg/mL
CCCCOc1ccc2cc(S(=O)(=O)Nc3cc(C(=O)O)cc(C(=O)O)c3)ccc2c1 | > 512 µg/mL | > 512 µg/mL | > 512 µg/mL | > 512 µg/mL | > 512 µg/mL | > 512 µg/mL | > 512 µg/mL | > 512 µg/mL | > 512 µg/mL | > 512 µg/mL | > 512 µg/mL | 70% | > 512 µg/mL | > 512 µg/mL | > 512 µg/mL | > 512 µg/mL | > 512 µg/mL | > 512 µg/mL | > 512 µg/mL | > 512 µg/mL | MIC [23]: > 512 µg/mL
N#Cc1ccc(COc2ccc3cc(S(=O)(=O)Nc4ccc(CC(=O)O)cc4)ccc3c2)c(F)c1 | > 512 µg/mL | 32 µg/mL (≈ 65.2 µM) | > 512 µg/mL | > 512 µg/mL | > 512 µg/mL | > 512 µg/mL | > 512 µg/mL | > 512 µg/mL | > 512 µg/mL | > 512 µg/mL | 64 µg/mL (≈ 130 µM) | 64% | > 512 µg/mL | > 512 µg/mL | > 512 µg/mL | > 512 µg/mL | > 512 µg/mL | > 512 µg/mL | 64 µg/mL (≈ 130 µM) | > 512 µg/mL | MIC [23]: > 512 µg/mL
CC(=O)N[C@H]1C(OP(=O)(O)O)O[C@H](CO)[C@@H](O)[C@@H]1O[C@H](C)C(=O)N[C@@H](C)P(=O)(O)CC(CCC(=O)O)C(=O)O (some centres not stated) | – | – | – | – | – | – | – | – | – | – | – | – | – | – | – | – | – | – | – | – | IC50 [24]: 0.02 µM
CCCCOc1ccc2cc(S(=O)(=O)Nc3cc(C(=O)O)ccc3C(=O)O)ccc2c1 | > 512 µg/mL | > 512 µg/mL | > 512 µg/mL | > 512 µg/mL | > 512 µg/mL | > 512 µg/mL | > 512 µg/mL | > 512 µg/mL | > 512 µg/mL | > 512 µg/mL | > 512 µg/mL | 78% | > 512 µg/mL | > 512 µg/mL | > 512 µg/mL | > 512 µg/mL | > 512 µg/mL | > 512 µg/mL | > 512 µg/mL | > 512 µg/mL | MIC [23]: > 512 µg/mL
C[C@@H]1NC(=O)[C@H](CO)NC(=O)CCCCCC[C@H](C(=O)O)CC1=O | – | – | – | – | – | – | – | – | – | – | – | – | – | – | – | – | – | – | – | – | IC50 [25]: 0.7 µM
CCCCOc1ccc2cc(S(=O)(=O)N[C@@H](CCC(=O)O)C(=O)O)ccc2c1 | – | – | – | – | – | – | – | – | – | – | – | – | – | – | – | – | – | – | – | – | IC50 [1]: 710 µM
Cc1ccc(C(=O)O)cc1NC(=O)CSc1nnc(N)s1 | – | – | – | – | – | – | – | – | – | – | – | – | – | – | – | – | – | – | – | – | IC50 [26]: 105 µM
CCCCOc1ccc2cc(S(=O)(=O)Nc3ccc(CC(=O)O)cc3)ccc2c1 | > 512 µg/mL | > 512 µg/mL | > 512 µg/mL | > 512 µg/mL | > 512 µg/mL | 512 µg/mL (≈ 1240 µM) | > 512 µg/mL | 256 µg/mL (≈ 619 µM) | 256 µg/mL (≈ 619 µM) | > 512 µg/mL | > 512 µg/mL | 97% | > 512 µg/mL | 256 µg/mL (≈ 619 µM) | 512 µg/mL (≈ 1240 µM) | 256 µg/mL (≈ 619 µM) | 512 µg/mL (≈ 1240 µM) | 512 µg/mL (≈ 1240 µM) | > 512 µg/mL | 512 µg/mL (≈ 1240 µM) | MIC [23]: 256 µg/mL (≈ 619 µM)
